Measurements reported in patent publication US12440476B2, “Agents that target telomerase reverse transcriptase (TERT) for treating cancer and sensitizing cancer cells to genotoxic therapy” (Northwestern University, priority 2022, dated 2025).

What was measured:
[1] = tested on: CT26 cells; experiment: Clonogenic survival after irradiation (radiosensitivity); format: cell-based, mouse
Experimental: To assess radiosensitivity, MCF7, Saos-2, or CT26 cells were seeded in 6-well plates at 100 cells per well in triplicate, allowed to attach overnight and treated with DMSO or TERT inhibitors at subtoxic concentrations for 1 h prior to IR. MCF7 cells were treated with 0.5 μM NU-1, 10 μM BIBR 1532, or 1 μM MST-312, Saos-2 cells with 1 μM NU-1 or 20 μM BIBR 1532 and CT26 cells with 1 μM NU-1, 20 μM BIBR 1532 or 2 μM MST-312. Doses of 0, 1, 2, 3, 4, or 5 Gy were applied using a GammaCell ^60Co γ-ray source (Nordion) at a dose rate of 7.09 cGy/sec. After that MCF7 and Saos-2 cells were cultured for 3 weeks and CT26 for 2 weeks, then fixed and stained with crystal violet. Colonies of at least 50 cells were counted. Data from three independent biological replicates were acquired. The surviving fraction (SF) was calculated using the following formula: […]

[2] = tested on: MCF7-FUCCI cells; experiment: Time-lapse live-cell analysis of cell cycle; format: cell-based, human; conditions: 0.5 μM for 1 h, then 6 Gy, 6 days
Experimental: MCF7-FUCCI cells were seeded at 3×10^4 per well in 6-well plates, allowed to attach overnight, then treated with 0.5 μM NU-2 control, NU-1 or chrolactomycin for 1 h, followed by 6 Gy. Then, live-cell imaging was conducted using the IncuCyteS3. Phase contrast along with green and red channels were acquired at 20× magnification with scanning every 2 h for 6 days. 16 non-overlapping fields were captured for each well. Representative consecutive images were used to create the movies using Fiji (Schindelin et al., 2012).

[3] = tested on: CT26 tumors; experiment: Subcutaneous CT26 tumor growth, IR with or without NU-1, immunodeficient host; format: in vivo; conditions: NSG mice
Experimental: For tumor inoculation, 7-9 week BALB/c mice or NSG mice were subcutaneously injected in the flank with 0.5×10^6 CT26 cells in 100 μL PBS. On Day 9 (tumor average volume ˜30 mm^3), the tumor bearing BALB/c mice were randomly divided into 4 groups of 8, while the NSG mice were randomly divided into 2 groups of 5-6. For NU-1 treatment, 10 mg/kg of NU-1 in 100 μL PBS was injected intraperitoneally once on each of the 2 days before, the day of and 2 days after irradiation. Mouse weight was measured before treatment. Tumor irradiation was conducted on Day 11 using a RadSource RS-2000 X-Ray generator operating at 160 kV and 25 mA at 10 Gy, calibrated by NIST traceable dosimetry. From Day 7 after tumor inoculation, tumors were measured by calipers every 2-3 days and volume calculated using the formula: Tumor volume (mm^3)=length (mm)×width (mm)×width (mm)[…]. On Day 18 after tumor inoculation, tumors from 3 mice under each treatment condition were collected for histology analysis. The rest of the mice were continuously maintained and recorded until at least Day 28 or reaching the humane endpoint for tumor volume. No animals that formed tumors after injection with CT26 cells were excluded from any studies reported here.
CT26 tumors were collected 5 days after treatment (Day 18 after tumor inoculation) and fixed in 10% neutral formalin for 24 h. […]

[4] = tested on: CT26 cells; experiment: Senescence-associated beta-galactosidase (SA-β-Gal) assay; format: cell-based, mouse; conditions: non-toxic doses, 10 Gy, 5 days
Experimental: MCF7, Saos-2, or CT26 cells were seeded at 3×10^4 per well in 6-well plates and allowed to attach to plate overnight. For TERT inhibition, MCF7 cells were treated with DMSO vehicle, NU-2 (0.5 μM), NU-1 (0.5 μM), chrolactomycin (0.5 μM), BIBR 1532 (10 μM), or MST-312 (1 μM) for 1 h prior to IR, Saos-2 cells were treated with DMSO vehicle, NU-2 (1 μM), NU-1 (1 μM), chrolactomycin (1 μM), BIBR 1532 (20 μM), or MST-312 (1 μM) for 1 h prior to IR, and CT26 cells were treated with MSO vehicle, NU-2 (1 μM), NU-1 (1 μM), chrolactomycin (1 μM), BIBR 1532 (20 μM), or MST-312 (2 μM) for 1 h prior to IR. Then MCF7 and Saos-2 cells were irradiated with 0 or 6 Gy and CT26 cells with 0 or 10 Gy. After IR, MCF7 and Saos-2 cells were continuously cultured for 7 days and CT26 for 5 days, then fixed in 2% PFA and stained with staining buffer (1 mg/ml X-Gal (Golden Bio), 40 mM citric acid/sodium phosphate, 150 mM NaCl, 2 mM MgCl2, 3.3 mM K3[Fe(CN)6], 3.3 mM K4[Fe(CN)6], pH=6) for 16 h at 37° C., then washed with warm PBS three times and imaged in PBS within a week. Images were captured on a Zeiss Axiovert 200M microscope with a 20× Plan-NeoFluar objective and Axiocam digital camera. SA-β-Gal-positive and -negative cells were counted in more than 5 fields, yielding an average percentage indicated on each SA-β-Gal image as mean±SD. Three replicates were performed.
To examine the roles for STING, CT26 cells were seeded at 2×10^4 per well in 12-well plates and allowed to attach overnight. STING inhibitor C178 (0 or 4 μM) was added, followed by the addition of DMSO vehicle, NU-1 (1 μM), MST-312 (2 μM) or chrolactomycin (1 μM) for 1 h prior to 0 or 10 Gy. CT26 cells were cultured for 5 days, surviving cells were washed twice in PBS and cultured in fresh immune cell culture medium overnight. The CT26 cells were then cocultured with BMDCs for 12-16 h at a 1:2 ratio, and BMDCs were collected and analyzed after coculturing, as described above.

C=C1C(=O)[C@](C)(C(=O)OC)[C@H](CCc2cn(Cc3ccc(F)cc3F)nn2)O[C@@H]1C [NU-1]
Sensitization of CT26 cells to radiation ([1]; CT26, non-toxic doses): sensitized CT26 cells to radiation
Mean SF2 (surviving fraction at 2 Gy) ([1]; CT26 cells, NU-1 1 μM, BIBR 1532 20 μM, MST-312 2 μM for 1 h prior to IR, 2 Gy): 0.322
Surviving cells arrested with G1 marker expression and senescent morphology [2]: ~80%
Tumor elimination ([3]; IR + NU-1): no longer sufficient to eliminate tumors
Tumor growth delay ([3]; IR + NU-1 vs IR alone): enhanced growth delay
Senescence induction by IR [4]: enhanced senescence induction by IR
